According to BindingDB's records for doi:10.1021/jm0491039 (University of Washington At Seattle, 2005):

Key:
[1] = molecular target: Protein farnesyltransferase/geranylgeranyltransferase type-1 subunit alpha (Rattus norvegicus, UniProt Q04631); experiment: PfPFT and Rat PFT IC50 Determination
Protocol: (§1) Assays for PFT activity were performed with a PFT-specific scintillation assay (SPA) kit (Amersham Biosciences, Piscataway, NJ). IC50 values were calculated using linear regression analysis of the plots of [3H] farnesyl pyrophosphate (FPP) prenylation versus concentration of compounds.

[2] = molecular target: Protein farnesyltransferase/geranylgeranyltransferase type-1 subunit alpha / Protein farnesyltransferase subunit beta (Plasmodium falciparum, UniProt Q5EI73+Q5EI74); experiment: PfPFT and Rat PFT IC50 Determination; conditions: pH 7.5; 37 °C
Chain of Protein farnesyltransferase/geranylgeranyltransferase type-1 subunit alpha / Protein farnesyltransferase subunit beta (Q5EI73 1-521): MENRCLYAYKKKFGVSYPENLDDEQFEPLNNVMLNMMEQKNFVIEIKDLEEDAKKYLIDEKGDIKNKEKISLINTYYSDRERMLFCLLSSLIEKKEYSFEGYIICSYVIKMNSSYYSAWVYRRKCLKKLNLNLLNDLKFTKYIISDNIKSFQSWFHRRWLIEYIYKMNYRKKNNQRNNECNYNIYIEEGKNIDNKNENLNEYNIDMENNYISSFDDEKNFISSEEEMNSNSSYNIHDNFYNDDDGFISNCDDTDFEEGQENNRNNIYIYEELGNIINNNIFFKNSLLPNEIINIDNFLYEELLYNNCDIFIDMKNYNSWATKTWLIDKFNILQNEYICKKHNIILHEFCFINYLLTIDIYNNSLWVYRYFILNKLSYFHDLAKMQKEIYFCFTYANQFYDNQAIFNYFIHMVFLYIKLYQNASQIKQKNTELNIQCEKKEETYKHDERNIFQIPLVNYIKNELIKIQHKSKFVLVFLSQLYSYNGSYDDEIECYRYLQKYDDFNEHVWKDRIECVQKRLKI
Chain of Protein farnesyltransferase/geranylgeranyltransferase type-1 subunit alpha / Protein farnesyltransferase subunit beta (Q5EI74 1-923): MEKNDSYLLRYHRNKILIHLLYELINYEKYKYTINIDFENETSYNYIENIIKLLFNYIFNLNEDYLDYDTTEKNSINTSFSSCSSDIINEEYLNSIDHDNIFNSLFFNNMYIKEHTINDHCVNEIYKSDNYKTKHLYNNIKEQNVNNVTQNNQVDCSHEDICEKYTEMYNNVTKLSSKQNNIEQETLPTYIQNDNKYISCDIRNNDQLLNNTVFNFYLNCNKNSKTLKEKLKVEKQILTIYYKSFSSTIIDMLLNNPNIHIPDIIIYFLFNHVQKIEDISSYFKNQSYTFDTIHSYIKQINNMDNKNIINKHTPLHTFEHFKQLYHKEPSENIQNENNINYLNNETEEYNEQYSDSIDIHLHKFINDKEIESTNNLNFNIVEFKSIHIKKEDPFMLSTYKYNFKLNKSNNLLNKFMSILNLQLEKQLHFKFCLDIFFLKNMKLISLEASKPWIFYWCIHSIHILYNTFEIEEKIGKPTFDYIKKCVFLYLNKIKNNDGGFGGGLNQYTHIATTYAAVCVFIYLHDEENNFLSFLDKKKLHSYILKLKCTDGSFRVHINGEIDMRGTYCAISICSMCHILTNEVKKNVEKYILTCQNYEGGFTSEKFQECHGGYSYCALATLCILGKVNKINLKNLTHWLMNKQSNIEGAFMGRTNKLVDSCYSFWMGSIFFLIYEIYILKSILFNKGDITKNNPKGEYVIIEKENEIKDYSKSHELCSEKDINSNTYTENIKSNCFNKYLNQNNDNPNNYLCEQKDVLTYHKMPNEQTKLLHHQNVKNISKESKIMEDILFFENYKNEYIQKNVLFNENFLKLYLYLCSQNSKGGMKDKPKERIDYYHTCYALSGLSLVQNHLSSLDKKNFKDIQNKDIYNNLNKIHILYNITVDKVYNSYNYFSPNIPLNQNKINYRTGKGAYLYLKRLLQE
Protocol: as §1

Row | Compound | IC50 [1] [nM] | IC50 [2] [nM]
1 | [C-]#[N+]c1ccc2c(c1)CC(N(CC(=O)NC(C)(C)C)S(=O)(=O)c1ccncc1)CN2Cc1cncn1C (stereo unspecified) [N-tert-Butyl-2-[[6-isocyano-1-(3-methyl-3H-imidazol-4-ylmethyl)-1,2,3,4-tetrahydroquinolin-3-yl]-(pyridine-4-sulfonyl)amino]acetamide] | 160 | 1000
2 | [C-]#[N+]c1ccc2c(c1)CC(N(CC(=O)NC(C)(C)C)S(=O)(=O)c1cccnc1)CN2Cc1cncn1C (stereo unspecified) [N-tert-Butyl-2-[[6-isocyano-1-(3-methyl-3H-imidazol-4-ylmethyl)-1,2,3,4-tetrahydroquinolin-3-yl]-(pyridine-3-sulfonyl)amino]acetamide] | 6 | 25
3 | [C-]#[N+]c1ccc2c(c1)CC(N(CC(=O)NC(C)(C)C)S(=O)(=O)c1ccccn1)CN2Cc1cncn1C (stereo unspecified) [N-tert-butyl-2-({6-isocyano-1-[(1-methyl-1H-imidazol-5-yl)methyl]-1,2,3,4-tetrahydroquinolin-3-yl}(pyridine-2-)sulfonamido)acetamide] | 1.8 | 1.4
